Measurements taken from ChEMBL document CHEMBL1201862, “PubChem BioAssay data set” (2004).
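All cell lines were grown in 96-well plates and treated with compound for 48 hours. The concentration for 50% growth inhibition is given as GI50.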 Activity calls are given as the source filed them. No stated cut-off is given here; in the data, active = GI50 up to about 1.1 µM and inactive = higher.

How the values were obtained:
Assay in all cases: inhibition of tumour cell growth, NCI panel, 48 h
KM12 = test system: KM12
SNB-75 = test system: SNB-75
MCF7 = test system: MCF7
HCT-15 = test system: HCT-15
TK-10 = test system: TK-10
HT-29 = test system: HT-29
SK-MEL-5 = test system: SK-MEL-5
A498 = test system: A498
SN12C = test system: SN12C
NCI-H226 = test system: NCI-H226
DU-145 = test system: DU-145
PC-3 = test system: PC-3
UACC-257 = test system: UACC-257
MDA-MB-231 = test system: MDA-MB-231
Malme-3M = test system: Malme-3M
HCC 2998 = test system: HCC 2998
LOX IMVI = test system: LOX IMVI
SW-620 = test system: SW-620
NCI-H522 = test system: NCI-H522
MDA-MB-435 = test system: MDA-MB-435

Row | SMILES | GI50 (KM12) | GI50 (SNB-75) | GI50 (MCF7) | GI50 (HCT-15) | GI50 (TK-10) | GI50 (HT-29) | GI50 (SK-MEL-5) | GI50 (A498) | GI50 (SN12C) | GI50 (NCI-H226) | GI50 (DU-145) | GI50 (PC-3) | GI50 (UACC-257) | GI50 (MDA-MB-231) | GI50 (Malme-3M) | GI50 (HCC 2998) | GI50 (LOX IMVI) | GI50 (SW-620) | GI50 (NCI-H522) | GI50 (MDA-MB-435)
1 | Cc1ccc(Cl)c2c(=O)c3ccc(N)cc3sc12 | 14.7 µM (inactive) | 13.6 µM (inactive) | 15.7 µM (inactive) | 21.1 µM | 38.3 µM (inactive) | 17.5 µM (inactive) | 17.5 µM (inactive) | 17 µM (inactive) | 15.7 µM (inactive) | 17.3 µM (inactive) | 26.1 µM (inactive) | 25 µM (inactive) | 25.8 µM (inactive) | 22.2 µM (inactive) | – | – | – | – | – | –
2 | C=CCN1C(=O)C/C(=C2/CCC(=O)N2CC=C)C1=O | > 100 µM (inactive) | > 100 µM (inactive) | – | > 100 µM | > 100 µM (inactive) | > 100 µM (inactive) | > 100 µM (inactive) | > 100 µM (inactive) | > 100 µM (inactive) | > 100 µM (inactive) | – | – | > 100 µM (inactive) | – | > 100 µM (inactive) | > 100 µM (inactive) | > 100 µM (inactive) | > 100 µM (inactive) | > 100 µM (inactive) | –
3 | CCCCCCCCCCCCCCCCCCNc1ccn(C2OC(COP(=O)(O)OCC3CCC(n4cnc5c(=O)[nH]cnc54)O3)C(O)C2O)c(=O)n1 (stereo not drawn) | > 100 µM (inactive) | > 100 µM (inactive) | > 100 µM (inactive) | 97.5 µM | 19.5 µM (inactive) | > 100 µM (inactive) | > 100 µM (inactive) | > 100 µM (inactive) | > 100 µM (inactive) | > 100 µM (inactive) | > 100 µM (inactive) | 14.2 µM (inactive) | > 100 µM (inactive) | – | > 100 µM (inactive) | – | > 100 µM (inactive) | > 100 µM (inactive) | 51.5 µM (inactive) | > 100 µM (inactive)
4 | Cc1ccc(-c2c(C#N)c(-c3ccccc3)n(NS(=O)(=O)c3ccc(C)cc3)c(=O)c2C#N)cc1 | 27.4 µM (inactive) | 92.5 µM (inactive) | 37 µM (inactive) | 36.4 µM | 55.3 µM (inactive) | 69.2 µM (inactive) | 19.2 µM (inactive) | 52.8 µM (inactive) | 82.6 µM (inactive) | 74.3 µM (inactive) | – | 36.6 µM (inactive) | > 100 µM (inactive) | > 100 µM (inactive) | 38.6 µM (inactive) | 47.4 µM (inactive) | 26.7 µM (inactive) | 40.6 µM (inactive) | 39.2 µM (inactive) | 61.7 µM (inactive)
5 | Cc1ccc(Nc2cn(COCc3ccccc3)c(=O)[nH]c2=O)cc1 | > 100 µM (inactive) | – | > 100 µM (inactive) | > 100 µM | – | > 100 µM (inactive) | > 100 µM (inactive) | > 100 µM (inactive) | > 100 µM (inactive) | > 100 µM (inactive) | > 100 µM (inactive) | > 100 µM (inactive) | > 100 µM (inactive) | – | – | > 100 µM (inactive) | > 100 µM (inactive) | > 100 µM (inactive) | – | > 100 µM (inactive)
6 | O=C1NC(=O)C2C(=O)NC(=O)C1C2(c1ccccc1)c1cc[nH]c1 (stereo not drawn) | > 100 µM (inactive) | > 100 µM (inactive) | – | > 100 µM | > 100 µM (inactive) | > 100 µM (inactive) | > 100 µM (inactive) | > 100 µM (inactive) | > 100 µM (inactive) | > 100 µM (inactive) | – | – | > 100 µM (inactive) | – | > 100 µM (inactive) | > 100 µM (inactive) | > 100 µM (inactive) | > 100 µM (inactive) | > 100 µM (inactive) | –
7 | C/C(=N\NC(=S)NC(CCC(=O)O)C(=O)O)c1cnccn1 (stereo not drawn) | > 100 µM (inactive) | > 100 µM (inactive) | – | > 100 µM | > 100 µM (inactive) | > 100 µM (inactive) | > 100 µM (inactive) | > 100 µM (inactive) | > 100 µM (inactive) | > 100 µM (inactive) | – | – | > 100 µM (inactive) | – | > 100 µM (inactive) | > 100 µM (inactive) | > 100 µM (inactive) | > 100 µM (inactive) | > 100 µM (inactive) | –
8 | c1ccc2c(c1)nc1n2CCCn2ccnc2-1 | > 100 µM (inactive) | > 100 µM (inactive) | > 100 µM (inactive) | 41.1 µM | – | > 100 µM (inactive) | 87.3 µM (inactive) | > 100 µM (inactive) | > 100 µM (inactive) | 68.7 µM (inactive) | > 100 µM (inactive) | > 100 µM (inactive) | – | > 100 µM (inactive) | > 100 µM (inactive) | – | > 100 µM (inactive) | > 100 µM (inactive) | > 100 µM (inactive) | –
9 | O=C(Cc1ccccc1[N+](=O)[O-])C(CO)c1ccccc1[N+](=O)[O-] (stereo not drawn) | > 100 µM (inactive) | 67.3 µM (inactive) | – | > 100 µM | > 100 µM (inactive) | 26.2 µM (inactive) | 31.7 µM (inactive) | 80.4 µM (inactive) | > 100 µM (inactive) | 15.6 µM (inactive) | – | – | 72.3 µM (inactive) | – | 79.4 µM (inactive) | > 100 µM (inactive) | 91.8 µM (inactive) | > 100 µM (inactive) | 16.8 µM (inactive) | –
10 | O=C1CC(Cl)c2c1csc2Br (stereo not drawn) | 13.2 µM (inactive) | 19.8 µM (inactive) | 6.25 µM (inactive) | 12.9 µM | 16 µM (inactive) | 21.7 µM (inactive) | 16.9 µM (inactive) | 24.1 µM (inactive) | 17.6 µM (inactive) | 29.9 µM (inactive) | 29.4 µM (inactive) | 12.8 µM (inactive) | 16.3 µM (inactive) | – | 15.7 µM (inactive) | 17.4 µM (inactive) | 14.1 µM (inactive) | 3.48 µM (inactive) | 3.26 µM (inactive) | 15.1 µM (inactive)
11 | Cc1cc2nc3c(C#N)c(-c4ccccc4)cc(Nc4cccc(C(F)(F)F)c4)n3c2cc1C | 4.07 µM (inactive) | 8.83 µM (inactive) | 3.91 µM (inactive) | 4.73 µM | 7.69 µM (inactive) | – | 3.21 µM (inactive) | 6.05 µM (inactive) | 3.68 µM (inactive) | 3.86 µM (inactive) | – | 2.56 µM (inactive) | 3.48 µM (inactive) | 3.43 µM (inactive) | 7.87 µM (inactive) | 3.84 µM (inactive) | 9.12 µM (inactive) | 3.74 µM (inactive) | 4.49 µM (inactive) | 5.13 µM (inactive)
12 | N#Cc1c(-c2ccccc2)cc(-c2ccc(N)cc2)[nH]c1=O | > 100 µM (inactive) | 25.2 µM (inactive) | – | > 100 µM | > 100 µM (inactive) | > 100 µM (inactive) | > 100 µM (inactive) | > 100 µM (inactive) | > 100 µM (inactive) | > 100 µM (inactive) | – | – | > 100 µM (inactive) | – | > 100 µM (inactive) | > 100 µM (inactive) | > 100 µM (inactive) | > 100 µM (inactive) | > 100 µM (inactive) | –
13 | O=C1CCCC2=C1CC1=C(CCCC1=O)N2c1cccc2ccccc12 | > 100 µM (inactive) | 29.1 µM (inactive) | 41.1 µM (inactive) | 66.7 µM | > 100 µM (inactive) | > 100 µM (inactive) | 85.3 µM (inactive) | > 100 µM (inactive) | > 100 µM (inactive) | > 100 µM (inactive) | – | > 100 µM (inactive) | – | – | – | > 100 µM (inactive) | > 100 µM (inactive) | > 100 µM (inactive) | – | –
